Laboratory results: patent publication US6573296B2, “Therapeutic quassinoid preparations with antineoplastic, antiviral, and herbistatic activity” (priority 1997, dated 2003)

Columns and labels:
NADH oxidase = NADH oxidase activity of soybean hypocotyl plasma membrane vesicles; format: biochemical; conditions: plant soybean hypocotyl tissue, FIG. 11
HeLa cells = assay: growth of HeLa cells under different redox poise; format: cell-based; conditions: 10^−7 M, no drug 725
Experimental: The reduced environment was obtained by addition of 100 μM cysteine and the oxidized environment by addition of 10 μM ter-butylhydroperoxide.

C38 = assay: soft agar disk diffusion zone of inhibition assay; format: cell-based, mice; conditions: 25 ug/disk
H8 = assay: soft agar disk diffusion zone of inhibition assay; format: cell-based, human; conditions: 25 ug/disk
Description: (§1) The following human tumors were used: Human adenosquamous lung tumor H-125 (7) and colon tumors H8, HCT-116, and CX-1 were used for in vitro testing only. Each human cell line was maintained in culture until plating was done. HCT-116, H8, and CX-1 were maintained in McCoy's media and heat inactivated fetal bovine serum (11% FBS). It was passaged (1:5 dilution) twice week following enzymatic dissociation using a trypsin/PBS-EDTA mixture. H-125 was maintained in CMRL/Fischer media (1:1) with 11% FBS. It was mechanically dissociated and passaged (3:10 dilution) weekly. For the plating assay, all cells were mechanically dispersed and diluted in the CMRL/Fischer. media mixture.

CX-1 = assay: soft agar disk diffusion zone of inhibition assay; format: cell-based, human; conditions: 25 ug/disk
Description: as §1

[1] = tested on: Arabadopsis (var. Columbia); assay: growth of plants in soil after foliar application; format: in vivo
Experimental: To evaluate the growth phenotype of a set of plants, a 1 mg concentration of 100 Mm (solution QD-2). This solution was diluted serially with water with or without Triton X-100, ethanol or DMSO and used directly for measurement of effects on seed germination or applied using a microliter syringe to foliage to evaluate growth effects on plants.
When applied to Arabadopsis (var. Columbia) growing in soil in 4 inch plastic pots, the glaucarubolone preparation was herbicidal at dilutions of 1:100 and 1:1000 (10 μ1/half pot). Plants were treated after 10 days of germination. At a dilution of 1:10,000, the plants were not killed but growth was completely stopped for about 3 weeks. Growth resumed about 30 days after treatment. […] The calculated application rate was 2.5×10^−3 oz/A.
In an experiment with Arabadopsis where the quassinoid preparation was administered in ethanol, herbicidal activity was observed down to a dilution of 1:10^4 (2.5×10^−5 oz/A) and a dilution of 1:10^5 (2.5×10^−6 oz/A) appeared to stop growth for at least 30 days. All plants were watered from the bottom to reduce surface spreading of the material. The inhibited phenotype includes an impaired ability of the plants to grow, i.e., cell elongation/cell expansion is prevented or reduced by at least 50% over several weeks.

[2] = in vivo chemotherapy of SC transplanted tumor; parameters: species or system mice; conditions: mouse, in vivo; C38; IV; days: Glaucarubinone 3,5-10, Holacanthone 3-12, Glaucarubolone 3-6, Chaparrinone 3-9; read-out: MTD Total Dose
Description: (§2) Mice. Inbreds mice used were C57B1/6, C3H/He, Balb/c, and DBA/2; hybrids were: B6D2F1 (C57B1/6 females×DBA/2 males), and CD2F1 (Balb/c females×DBA/2 males). All mice were obtained from the Frederick Cancer Research Facility, Frederick, Md.
(§3) Tumors were maintained in the mouse strain of origin and were transplanted into either an appropriate F1 hybrid or the strain of origin for therapy trials. All mice were over 17 g at the start of therapy; the range of individual body weights in each experiment was within 2 g. The mice were supplied food and water ad libitum.
(§4) Antitumor Agents. The compound easily dissolved in the diluent which consisted of 3% [V/V (100%-Pure)] Ethanol, 1% (V/V) polyoxyethylanesorbitan monopalmitate (P.O.E.40) and 96% sterile distilled water. The primary route of administration was intravenous (IV).
(§5) […] Chemotherapy. The methods of protocol design, tumor transplantation, drug treatment, endpoint determination, definition of terms, toxicity evaluation, data analysis, quantification of tumor cell kill, and the biologic significance of the drug treatment results with transplantable tumors have been presented. The following is a brief summary of those methods as they apply to the work described.
(§6) The animals necessary to begin an experiment were pooled, implanted bilaterally SC on day 0 with 30 to 60 mg tumor fragments using a 12 gauge trocar, and again pooled before randomization to the various treatment and control group. Chemotherapy was either started within 3 days after tumor implantation while the number of cells per mouse was relatively small (10^7 to 10^8 cells), or allowed to grow to palpation (about 3×10^8 cells) in a more advanced stage trial.
(§7) Tumors were measured with a caliper either once or twice weekly (as needed) until either tumors exceeded 1500 mg or cure was. assured. Tumor weights were estimated from two-dimensional measurements:
(§8) Tumor Weight (mg)=(a×b^2)/2, where a and b are the tumor length and width (mm) respectively.
(§9) Tumor growth delay. (T-C value), where T is the median time (in days) required for the treatment group tumors to reach a predetermined size, and C is the median time (in days) for the control group tumors to reach the same size. Tumor-free survivors were excluded from these calculations (cures were tabulated separately).
(§10) Calculation of tumor cell kill. For SC growing tumors, the log10 cell kill was calculated from the following formula: [formula]
(§11) Where T-C is the tumor growth delay (in days) as described above and Td is the tumor volume doubling time (in days), the latter estimated from the best fit straight line from a log-linear growth plot of the control-group tumors in exponential growth (500 to 1500 mg range). The conversion of the T-C values of log10 cell kill is possible because the Td for tumors regrowing post-treatment approximated the Td values of the tumors in untreated control mice.
(§12) Determination of activity by tumor growth inhibition (T/C value). Measurements were carried out simultaneously in both the treatment and control groups. When the control group tumors reached approximately 750-1500 mg in size (median of group), the median tumor weight of each group was determined (including zeros).

[3] = tested on: colon adenocarcinoma #38 [C38]; assay: in vivo chemotherapy of SC transplanted tumor; parameters: species or system mice
Description: as §2, §3, §4, §5, §6, §7, §8, §9, §10, §11, §12

Tomato plants = assay: growth of plants in peat after treatment; format: in vivo
Experimental: Tomato plants about 3.5 cm high at the time of treatment were grown in peat in a flat of 1.5 inch diameter compartments and were treated with either aqueous simalikalactone (solution QD-1) or aqueous glaucarubolone (solution QD-2) containing 0.1% Triton X-100. The final volume/plant was 10 μ1 for the aqueous solution and 200 µl of the aqueous solution containing Triton X-100. […] With the aqueous treatment, plants also were inhibited but not as markedly as with detergent.

Structure (SMILES): CC1=CC(=O)C(O)C2(C)C1CC1OC(=O)C(O)C3C(C)C(O)C4(O)OCC13C42 (stereo not shown) [Glaucarubolone, glaucarubolone]
- inhibition of NADH oxidation, in words (NADH oxidase): similarly inhibited
- Growth HeLa cells after 72 h, Oxidized (HeLa cells; 10 μM ter-butylhydroperoxide): 500 cells/mm^2
- Growth HeLa cells after 72 h, Reduced (HeLa cells; 100 μM cysteine): 700 cells/mm^2
- Growth HeLa cells after 72 h, In situ (HeLa cells): 720 cells/mm^2
- zone of inhibition C38 (C38): 900 ZONE UNITS
- zone of inhibition H8 (H8): 650 ZONE UNITS
- zone of inhibition CX-1 (CX-1): 100 ZONE UNITS
- plants which survived and did not grow for >50 days ([1]; dilution of 1:1000 (2.5×10^−3 oz/A)): Approximately 10%
- time after treatment at which growth resumed ([1]; dilution of 1:10,000): about 30 days
- time for which growth was completely stopped ([1]; dilution of 1:10,000 (2.5×10^−4 oz/A), plants not killed): about 3 weeks
- effect on plants, in words ([1]; dilutions of 1:100 and 1:1000 (10 μl/half pot), treated after 10 days of germination): herbicidal
- MTD [2]: 151 mg/kg
- Cures ([3]; C38, IV at MTD, cured/total mice): 1/5
- in vivo activity against C38, in words ([3]; mouse, in vivo): therapeutic activity
- effect on tomato plants, in words (Tomato plants; 1:1000 and 1:10,000 dilutions in detergent solution, 30 days after treatment): still inhibited
- effect on tomato plants, in words (Tomato plants; 100 Mm diluted 1:100 in 0.1% Triton X-100): did not grow and eventually died
